Source: patent US20100222309A1, “SKIN PROPERTY-IMPROVING THERAPEUTIC AGENT COMPRISING A MORPHINAN DERIVATIVE OR ANY OF ITS PHARMACOLOGICALLY PERMISSIBLE ACID ADDITION SALTS AS AN ACTIVE INGREDIENT” (TORAY INDUSTRIES, INC., priority 2007, published 2010)

Tested on: itch patients treated with hemodialysis
Test: Oral administration of compound 1 soft capsules to itch patients treated with hemodialysis; skin properties and itching observed
[1] = one of the patients, after end of administration

How did the itching [1] turn out when `CN(C(=O)/C=C/c1ccoc1)[C@@H]1CC[C@@]2(O)[C@H]3Cc4ccc(O)c5c4[C@@]2(CCN3CC2CC2)[C@H]1O5.Cl` [compound 1] was run?
The itching was “began to feel itching again”.

What about the skin moisture [1] of the same molecule?
The skin moisture was “began to have dry skin”.

And the itching (patient, two capsules (5.0 μg) oral, after start of administration)?
The itching was “began to feel less itching”.
